The values below come from US20210290537A1, “LIPOSOMAL ELINAFIDE FORMULATIONS AND USES THEREOF” (MALLINCKRODT LLC, priority 2016, published 2021).

In general, IC50 refers to the concentration that gives 50% inhibition. One may read the AUC as the area under the concentration-time curve, a measure of exposure. In general, Cmax refers to the maximum level reached in the sampled fluid or tissue. One may read the half-life as the time needed for the level to fall by half in the phase considered. Low values mean fast loss, high ones slow loss.

The conditions of series [1]: phase I studies / clinical development, background; cited from earlier work.
The subject of series [2] is HT-29 human colorectal adenocarcinoma cells. Put plainly: In vitro IC50 cytotoxicity, Alamar Blue cell viability. The series is classed as cell-based. The procedure:
HT-29 human colorectal adenocarcinoma cells (#HTB-38, ATCC, Manassas, Va.) were plated in 96-well tissue culture plates (Costar #3595) at 5×10^3 cells/well in a final volume of 0.1 mL of 10% fetal bovine serum in McCoy's 5A (#10-050-CV, Mediatech, Manassas, Va.). Defined fetal bovine serum was obtained from HyClone (#SH30070.03, lot #AWB96395, Logan, Utah). Plates containing cells were incubated at 37° C. in 5% CO2 in humidified air for 24 hr. The selected initial cell plating density was chosen based upon the approximate doubling time of the human tumor cell line.
Test compounds were diluted from stock solutions to 2.2 mmol/L in Dulbecco's modified phosphate-buffered saline (DPBS; Mediatech, Inc., lot #21031339, Manassas, Va.), then serially diluted three-fold in DPBS to generate a nine point dose-response curve. Ten microliters of diluted test compounds were added to wells in triplicate to achieve the desired final concentration of test compounds. Plates containing cells with and without added test compounds were returned to incubation as described above.
For the two hour cytotoxicity assessment, medium was removed after two hours of drug exposure and replaced with 0.1 mL/well culture medium, and cells were incubated for an additional 70 hours as above.
For the twenty-four hour cytotoxicity assessment, medium was removed after one day of drug exposure and replaced with 0.1 mL/well culture medium, and cells were returned to incubation for an additional 48 hours. Subsequently, cell viability was assessed using Alamar Blue. For this purpose, media was removed by pipetting from cultured cells and replaced with 0.1 mL/well of 10% (v/v) Alamar Blue (#BUFO12A, AbD Serotec, Raleigh, N.C.) diluted in the appropriate cell culture media. Plates were then returned to incubation as before for appropriate color development, between two to four hours.
Fluorescence of individual plate wells was measured at 545 nm/590 nm (excitation/emission) using a BioTek Synergy4 microplate reader. Cell viability was calculated as a percentage of measured fluorescence obtained relative to cells treated with culture media alone. IC50 values (μmol/L) were determined with the mean of triplicate values using nonlinear regression analysis and a four-parameter logistic model.
In general terms: Alamar Blue is a resazurin reagent that responds to reducing activity.

Series [3] is described as follows: MTD of liposomal and free naphthalimides and azonifides. It counts as in vivo.
Series [4] can be described thus: Single-dose muscle myopathy study, 14-day observation. The series is classed as in vivo. The note with it: for Myopathy / Survival: rats, 14 days. The source says:
Rats that loss greater than 20% of its body weight were dropped from the study. […]

The nature of another series: in vivo. The note with it: rat, plasma, 20 mg/kg.
Setting [5] is: Homo sapiens, 2 h, Table 7, read-out: 2 hr Tx (IC50).
Where [6] appears, read: Homo sapiens, 24 h, Table 7, read-out: 24 hr Tx (IC50).
The mark [7] stands for this setting: Homo sapiens, 48 h, Table 7, read-out: 48 hr Tx (IC50).
Setting [8] is: mouse, in vivo, male athymic nude mice, read-out: MTD.
The mark [9] stands for this setting: Table 7, read-out: 2 hr Tx (IC50).
Setting [10] is: Table 7, read-out: 24 hr Tx (IC50).
Setting [11] is: Table 7, read-out: 72 hr Tx (IC50).

Like-named read-outs stand apart in the source and are kept apart here.

Turning to `CN(C)CCN1C(=O)c2cccc3cc(N)cc(c23)C1=O` [Amonafide Free, Amonafide], the “dose-limiting toxicity in clinical study” value in series [1] was “high variability and dose-limiting toxicity”. The results for the IC50 in series [2] (setting [5]), in series [2] (setting [6]) and in series [2] (setting [7]) were 90.3 µM, 34.2 µM and 15.7 µM, respectively. In addition, in series [3] (setting [8]), the MTD is 45 mg/kg.
As to `CN(C)CCN1C(=O)c2cccc3cc4ccccc4c(c23)C1=O` [Azonifide Free, Azonifide], the IC50 is 1.17 µM in series [2] (setting [5]); 0.256 µM in series [2] (setting [6]); 0.283 µM in series [2] (setting [7]); 0.386 µM in series [2] (Homo sapiens, 72 h, Table 7, read-out: 72 hr Tx (IC50)). Also, in series [3] (setting [8]), the MTD stood at 10 mg/kg.
Consider `C[C@H](CNCCNC[C@@H](C)N1C(=O)c2cccc3cc([N+](=O)[O-])cc(c23)C1=O)N1C(=O)c2cccc3cc([N+](=O)[O-])cc(c23)C1=O` [DMP-840], for which the “dose-limiting toxicity in clinical study” value in series [1] is recorded as “dose limiting toxicity”.
With `O=C1c2cccc3cccc(c23)C(=O)N1CCNCCCNCCN1C(=O)c2cccc3cccc(c23)C1=O` [Free Elinafide, Elinafide], in series [1], the “dose-limiting toxicity in clinical study” value was “cumulative dose-limiting neuro-muscular toxicity and myelosuppression”. For the same compound, in series [4] (administration at MTD, single dose), the “muscle myopathy in treated rats” value was “significant muscle myopathy”. Moreover, in series [4] (25 mg/kg, F), the Myopathy was 1/3 and the Survival was 3/3. Moreover, in series [4] (25 mg/kg, M), the Myopathy is 2/3 and the Survival is on record as 3/3. In series [4] (35 mg/kg, F), the Myopathy is reported as 3/3 and the Survival is listed as 3/3. For the same compound, the Survival in series [4] (35 mg/kg, M) was 0/3. In the series “in vivo”, the AUC amounted to 4.7 ng·h/mL, the Cmax amounted to 1.4 ng/mL, the Vd amounted to 204000 and the half-life is 53.5 h.
As to `CN(C)CCN1C(=O)c2cccc3cc(NC(N)=O)cc(c23)C1=O` [UNBS-5162 Free, UNBS-5162], in series [1], the “dose-limiting toxicity in clinical study” value is “dose limiting toxicity”. Besides, the IC50 in series [2] (setting [9]) was greater than 100 µM; in series [2] (setting [10]), 24.8 µM; in series [2] (setting [11]), 31.3 µM. Also, the MTD in series [3] (male athymic nude mice) is given as 45 mg/kg.
Regarding `CN(C)CCN1C(=O)c2cccc3cc([N+](=O)[O-])cc(c23)C1=O` [mitonafide], the “dose-limiting toxicity in clinical study” value in series [1] is listed as “dose limiting toxicity”.
Ethonafide [Ethonafide Free]: the values for the IC50 in series [2] (setting [9]), in series [2] (setting [10]) and in series [2] (setting [11]) were 0.751 µM, 0.189 µM and 0.388 µM, respectively. The compound also came in with an MTD in series [3] (mouse, in vivo) of 15 mg/kg.
